Reference: patent US10894087B2, “Multi-arm polymeric prodrug conjugates of cabazitaxel-based compounds” (Nektar Therapeutics, priority 2010, dated 2021)
Where two headings read alike, the source gives them in different places.

Columns and labels:
[1] = test system: H460 non-small cell lung cancer (NSCLC) implants; conditions: for % TGD / Median TTE (Median Time to Endpoint) / TGD (tumor growth delay compared to vehicle) / CR (Number of Complete Regressions) / Deaths / PR (Number of Partial Regressions) / TFS (Number of Tumor Free Survivors) / MTV (Median Tumor Volume) / BW Nadir (d), day of nadir: iv; for % TGD / Median TTE (Median Time to Endpoint) / TGD (tumor growth delay compared to vehicle) / CR (Number of Complete Regressions) / Deaths / PR (Number of Partial Regressions) / TFS (Number of Tumor Free Survivors) / MTV (Median Tumor Volume): qwk x 3; for CR (Number of Complete Regressions) / Deaths / PR (Number of Partial Regressions) / TFS (Number of Tumor Free Survivors): N=10; for BW Nadir (d), day of nadir: mouse, in vivo
Experimental: Purpose. Studies were conducted to assess the growth inhibitory effects of PEGylated-conjugates of cabazitaxel on H460 non-small cell lung cancer (NSCLC) implants in athymic nu/nu mice.
Experimental plan. These studies were conducted using routine methods and materials that are familiar to those skilled in the art. Briefly, 8 to 12 week old female nu/nu mice were injected subcutaneously in the flank with 1×10^7 H460 tumor cells in 0.2 mL sterile buffer. […] Animals received three intravenous doses of test article at one week intervals beginning on day 1. Cabazitaxel solutions were prepared in D5W containing 5% Tween 80:10% ethanol. PEG-cabazitaxel conjugates were prepared in D5W. The administration volume for all test articles was 10 mL/kg. The test doses were selected to represent the MTD and ½ the MTD for each test compound. The tables list the actual mg/kg for each test article and the corresponding cabazitaxel equivalent calculated based on the weight-percent cabazitaxel content for each PEGylated conjugate.
Animals were weighed on days 1-5, 7, 9, 11, 13 then biweekly until the end of the study. Tumor sizes were measured using calipers biweekly throughout the study and tumor volumes were calculated using the formula for an ellipsoid sphere: L×W^2/2=mm^3, where L and W are the major axis dimensions of the tumor in mm. Additional parameters that were monitored were the number of non-specific deaths, number of partial and complete tumor regressions, number of tumor-free survivors, and the time required for individual animals' tumors to reach 2000 mm^3. The median time for a tumor to reach 2000 mm^3 in the treatment groups (T) and control group (C) was used to calculate of the overall delay in the growth of the median tumor (TGD). Animals were monitored individually until reaching the experimental endpoint: tumor size of 2000 mm^3 or 45 days, whichever came first. […] When the study endpoint was reached, the animals were euthanized.

[2] = Maximum tolerated dose (MTD) study of PEGylated conjugates of cabazitaxel in athymic mice; type: in vivo, female athymic nu/nu mice; conditions: qw x 3, iv; for Treatment-Related Deaths: N=5; for Estimated MTD, cabazitaxel equivalents: athymic nu/nu mice, guide value, not a definitive MTD
Experimental: Purpose. This study was performed to determine appropriate doses of each compound for tumor xenograft studies. In those studies, it is desirable to administer the maximum dose of test compound that will not cause excessive loss of body weight. In general, loss of ˜15% of the initial body weight of the animal is typically the maximum desired.
Experimental procedure. MTD for 4-arm-conjugated to cabazitaxel were determined in female athymic nu/nu mice using standard methods. Briefly, 8-12 week old mice were administered test compounds or cabazitaxel intravenously at one week intervals for a total of three doses per mouse (qw×3, iv) as shown in Tables 1 and 2. For all PEG-conjugated test compounds, the doses of both the conjugate and released cabazitaxel, calculated from the cabazitaxel content of the respective conjugate, are shown. […] PEG-cabazitaxel conjugates were prepared in D5W. […] Mice were observed daily for clinical signs and body weights were recorded on days 1-5 and then biweekly until the end of study. All procedures were conducted in compliance with IACUC requirements. […] For any group with two measurements of mean body weight loss of greater than 20%, dosing was stopped and recovery was allowed. Within a group with greater than 20% mean weight loss, individual animals greater than 30% body weight loss were euthanized. Compound dosing was terminated for any group in which mean weight loss exceeded 20% or >10% of animals died. Moribund animals were euthanized and all animals were euthanized at end of study (day 30).
Results. The results for the study MTD “20K Conjugates” are summarized in Table 3 and FIG. 1 while the results for the MTD “30K and 40K Conjugates” study are summarized Table 4 and FIG. 2. […] It should be noted that this is not meant to be a definitive MTD, but is simply a guide to select an appropriate dose for conducting tumor xenograft studies using this administration route and schedule. Note too, that these MTD are given as cabazitaxel equivalents. The actual dose of each conjugate must be corrected for the wt % of cabazitaxel in that specific conjugate.

[3] = mainly by the CYP3A4/5 isozyme; cited from earlier work
[4] = 20K conjugate xenograft study, 12.5 mg/kg cabazitaxel eq.
[5] = 20K conjugate xenograft study, 25 mg/kg cabazitaxel eq.
[6] = MTD study 20K conjugates, 7.5 mg/kg cabazitaxel eq.
[7] = MTD study 20K conjugates, 15 mg/kg cabazitaxel eq.
[8] = MTD study 20K conjugates, 30 mg/kg cabazitaxel eq.
[9] = 20K conjugate xenograft study, 15 mg/kg cabazitaxel eq.
[10] = 20K conjugate xenograft study, 30 mg/kg cabazitaxel eq.
[11] = 30K and 40K conjugate xenograft study, 15 mg/kg cabazitaxel eq.
[12] = 30K and 40K conjugate xenograft study, 30 mg/kg cabazitaxel eq.
[13] = MTD study 30K and 40K conjugates, 30 mg/kg cabazitaxel eq.

## 4-ARM-PEG20K-Acetate-Linked Cabazitaxel [4-arm-PEG20K-CM-Cabazitaxel]
[1]; [4]
  % TGD: 99%
  Median TTE (Median Time to Endpoint): 36.8 days
  TGD (tumor growth delay compared to vehicle): 18.3 days
  CR (Number of Complete Regressions): 0
  Deaths: 0
  PR (Number of Partial Regressions): 0
  TFS (Number of Tumor Free Survivors): 0
[1]; [5]
  % TGD: 154%
  MTV (Median Tumor Volume): 358 mm^3
  TGD (tumor growth delay compared to vehicle): 28.5 days
  CR (Number of Complete Regressions): 0
  Deaths: 0
  PR (Number of Partial Regressions): 10
  TFS (Number of Tumor Free Survivors): 0
[2]; [6]
  BW Nadir: −3.4%
  BW Nadir (day): 3 days
  Treatment-Related Deaths: 0
[2]; [7]
  BW Nadir: −2.0%
  BW Nadir (day): 3 days
  Treatment-Related Deaths: 0
[2]; [8]
  BW Nadir: −10.2%
  BW Nadir (day): 23 days
  Treatment-Related Deaths: 0
[2]
  Estimated MTD, cabazitaxel equivalents: 25 mg/kg

## 4-ARM-PEG20K-Butanoate-Linked Cabazitaxel Conjugate [4-arm-PEG20K-BA-Cabazitaxel]
[1]; 20K conjugate xenograft study
  Tumor growth inhibition compared with cabazitaxel and the other conjugates (in words): did not provide greater tumor growth inhibition than either cabazitaxel or the other PEG-cabazitaxel conjugates tested in this study
[1]; [4]
  % TGD: 36%
  Median TTE (Median Time to Endpoint): 25.3 days
  TGD (tumor growth delay compared to vehicle): 6.7 days
  CR (Number of Complete Regressions): 0
  Deaths: 0
  PR (Number of Partial Regressions): 0
  TFS (Number of Tumor Free Survivors): 0
[1]; [5]
  % TGD: 112%
  Median TTE (Median Time to Endpoint): 39.3 days
  TGD (tumor growth delay compared to vehicle): 20.8 days
  CR (Number of Complete Regressions): 0
  Deaths: 0
  PR (Number of Partial Regressions): 0
  TFS (Number of Tumor Free Survivors): 0
[2]; [6]
  Treatment-Related Deaths: 0
[2]; [7]
  BW Nadir: −1.3%
  BW Nadir (day): 2 days
  Treatment-Related Deaths: 0
[2]; [8]
  BW Nadir: −16.6%
  BW Nadir (day): 20 days
  Treatment-Related Deaths: 0
[2]
  Estimated MTD, cabazitaxel equivalents: 25 mg/kg

## CO[C@H]1C(=O)[C@]2(C)[C@@H](OC)C[C@H]3OC[C@@]3(OC(C)=O)[C@H]2[C@H](OC(=O)c2ccccc2)[C@]2(O)C[C@H](OC(=O)[C@H](O)[C@@H](NC(=O)OC(C)(C)C)c3ccccc3)C(C)=C1C2(C)C [Cabazitaxel, (2α,5β,7β,10β,13α-4-acetoxy-13-({(2R,3S)-3-[(tertbutoxycarbonyl)amino]-2-hydroxy-3-phenylpropanoyl}oxy)-1-hydroxy-7,10-dimethoxy-9-oxo-5,20-epoxytax-11-en-2-yl benzoate]
[1]; [9]
  % TGD: 52%
  MTV (Median Tumor Volume): 1764 mm^3
  Median TTE (Median Time to Endpoint): 28.1 days
  TGD (tumor growth delay compared to vehicle): 9.6 days
  CR (Number of Complete Regressions): 0
  Deaths: 0
  PR (Number of Partial Regressions): 0
  TFS (Number of Tumor Free Survivors): 0
[1]; [10]
  % TGD: 154%
  MTV (Median Tumor Volume): 918 mm^3
  TGD (tumor growth delay compared to vehicle): 28.5 days
  CR (Number of Complete Regressions): 0
  Deaths: 0
  PR (Number of Partial Regressions): 3
  TFS (Number of Tumor Free Survivors): 0
[1]; [11]
  % TGD: 87%
  Median TTE (Median Time to Endpoint): 27.9 days
  TGD (tumor growth delay compared to vehicle): 13 days
  CR (Number of Complete Regressions): 0
  Deaths: 0
  PR (Number of Partial Regressions): 0
  TFS (Number of Tumor Free Survivors): 0
[1]; [12]
  % TGD: 208%
  MTV (Median Tumor Volume): 994 mm^3
  TGD (tumor growth delay compared to vehicle): 31.1 days
  CR (Number of Complete Regressions): 0
  Deaths: 0
  PR (Number of Partial Regressions): 5
  TFS (Number of Tumor Free Survivors): 0
[1]; 15 mg/kg
  BW Nadir (d), day of nadir: (22) d
[1]; 30 mg/kg
  BW Nadir (d), day of nadir: (22) d
[3]
  Extent metabolized in the liver: > 95%
[2]; [8]
  BW Nadir: −15.4%
  BW Nadir (day): 20 days
  Treatment-Related Deaths: 0
[2]; [13]
  BW Nadir: −6.8%
  BW Nadir (day): 21 days
  Treatment-Related Deaths: 0
